Results as given in ChEMBL document CHEMBL1154703, “Poly-N-methylated amyloid beta-peptide (Abeta) C-terminal fragments reduce Abeta toxicity in vitro and in Drosophila melanogaster” (J Med Chem, 2009).
Active and inactive are the calls of the source. The calls are words filed in the database; no cut-off is given here. Non-standard residues stand in square brackets, D forms with d. Residues, ends and D or L forms follow the SMILES beside them. Met(O2) = CS(=O)(=O)CC[C@H](N)C(=O)O; NMeI = CC[C@H](C)[C@H](NC)C(=O)O; NMeL = CN[C@@H](CC(C)C)C(=O)O; NMeV = CN[C@H](C(=O)O)C(C)C; Sar = CNCC(=O)O

Experiments:
[1] = Inhibition of fibril formation of Abeta (1-40) assessed as fibril levels at 1:5 molar ratio of Abeta and ligand after 72 hrs by transmission electron microscopy relative to untreated control; set-up: scale not given: the % may be the effect or the level left
[2] = Reduction of beta-sheet formation of Abeta (1-42) at 100 uM during 3 hrs incubation by CD spectroscopy
[3] = Reduction of beta-sheet formation of Abeta (1-40) at 100 uM during 4 to 5 hrs incubation by CD spectroscopy
[4] = Effect on of Abeta (1-40) assessed as structure content at 5 hrs by CD spectroscopy
[5] = Inhibition of Abeta (1-40) assessed as blockade of amyloid-like aggregates at 100 uM by Congo red binding assay
[6] = Inhibition of Abeta (1-42) assessed as blockade of amyloid-like aggregates at 100 uM by Congo red binding assay
[7] = Inhibition of fibril formation of Abeta (1-40) assessed as fibril levels at 1:10 molar ratio of Abeta and ligand after 72 hrs by transmission electron microscopy relative to untreated control; set-up: scale not given: the % may be the effect or the level left
[8] = system: PC-12; assay: Cytoprotection against Abeta (1-42)-induced toxicity in rat PC12 cells at 10 uM after 4 hrs by MTT assay; assay type: functional, cell-based
[9] = Reduction of beta-sheet formation of Abeta (1-40) at 1:1 molar ratio of Abeta and ligand during 5 hrs incubation by CD spectroscopy
[10] = Reduction of beta-sheet formation of Abeta (1-40) at 100 uM during 5 hrs incubation by CD spectroscopy
[11] = Reduction of beta-sheet formation of Abeta (1-42) at 100 uM during 4 hrs incubation by CD spectroscopy
[12] = Reduction of beta-sheet formation of Abeta (1-40) at 1:1 molar ratio of Abeta and ligand during 4 hrs incubation by CD spectroscopy
[13] = Effect on of Abeta (1-40) assessed as unordered structure content after 5 hrs by CD spectroscopy
[14] = Effect on of Abeta (1-42) assessed as unordered structure content after 5 hrs by CD spectroscopy
[15] = Inhibition of fibril formation of Abeta (1-40) assessed as change in fibril morphology at 100 uM by atomic force microscopy relative to untreated control
[16] = Inhibition of fibril formation of Abeta (1-40) assessed as change in fibril levels at 100 uM by atomic force microscopy relative to untreated control
[17] = system: Drosophila melanogaster; assay: Prolongation of life span in transgenic Drosophila melanogaster expressing human Abeta (1-42) at 300 uM dosed from embryonic stage and throughout adult life; assay type: functional, organism-based
[18] = system: Drosophila melanogaster; assay: Effect on life span in wild type Drosophila melanogaster at 300 uM dosed from embryonic stage and throughout adult life; assay type: functional, organism-based
[19] = system: Drosophila melanogaster; assay: Improvement in locomotor activity in transgenic Drosophila melanogaster expressing human Abeta (1-42) at 300 uM dosed from embryonic stage and throughout adult life by climbing assay; assay type: functional, organism-based
[20] = Inhibition of fibril formation of Abeta (1-40) assessed as fibril levels at 1:1 molar ratio of Abeta and ligand after 72 hrs by transmission electron microscopy relative to untreated control; set-up: scale not given: the % may be the effect or the level left

Structure (SMILES)	Activity [1] [%]	Activity [2]	Activity [3]	Activity [4] [%]	Activity [5]	Activity [6]	Activity [7] [%]	Activity [8]	also measured
CC[C@H](C)[C@H](NC(C)=O)C(=O)NCC(=O)N[C@@H](CC(C)C)C(=O)N[C@@H](CCSC)C(=O)N[C@H](C(=O)NCC(N)=O)C(C)C (Ac-IGLMVG-NH2)		Active	Active	25	inactive	inactive	75	inactive	
CC[C@H](C)[C@H](NC(C)=O)C(=O)N(C)CC(=O)N[C@@H](CC(C)C)C(=O)N[C@@H](CCSC)C(=O)N[C@H](C(=O)N(C)CC(N)=O)C(C)C (Ac-I[Sar]LMV[Sar]-NH2)		Active	Active		inactive	inactive	75	Active	
CC[C@H](C)[C@@H](C(=O)NCC(=O)N(C)[C@@H](CC(C)C)C(=O)N[C@@H](CCSC)C(=O)N(C)[C@H](C(=O)NCC(N)=O)C(C)C)N(C)C(C)=O (Ac-[NMeI]G[NMeL]M[NMeV]G-NH2)		Active	Active	25	inactive	inactive	50	Active	Activity [9]: inactive

Now from value to compound, other results behind:

Activity [1] [%]	Activity [2]	Activity [3]	Activity [4] [%]	Activity [5]	Activity [6]	Activity [7] [%]	Structure (SMILES)	Activity [8]	also measured
75							CC(=O)N(C)[C@@H](C)C(=O)N(C)[C@@H](C)C(=O)N(C)[C@@H](C)C(=O)N(C)[C@@H](C)C(=O)N(C)[C@@H](C)C(N)=O		
0			25	Active	Active	0	CC[C@H](C)[C@@H](C(=O)N(C)CC(=O)N(C)[C@@H](CC(C)C)C(=O)N[C@@H](CCSC)C(=O)N(C)[C@H](C(=O)N(C)CC(N)=O)C(C)C)N(C)C(C)=O (Ac-[NMeI][Sar][NMeL]M[NMeV][Sar]-NH2)	Active	Activity [10]: Active; Activity [11]: Active; Activity [12]: Active; Activity [13]: 55%; Activity [14]: > 50%; Activity [15]: Active; Activity [16]: Active; Activity [17]: Active; Activity [18]: inactive; Activity [19]: Active; Activity [20]: 50%
50							CC[C@H](C)[C@@H](C(=O)N(C)CC(=O)N(C)[C@@H](CC(C)C)C(=O)N[C@@H](CCS(C)(=O)=O)C(=O)N(C)[C@H](C(=O)N(C)CC(N)=O)C(C)C)N(C)C(C)=O (Ac-[NMeI][Sar][NMeL][Met(O2)][NMeV][Sar]-NH2)		
